Experimental data from patent EP2711369A1, “Liposomes containing tetraether lipid derivatives” (Bernina Plus GmbH, priority 2012, dated 2014).

System: Brattleboro rats
Assay: In vivo testing of liposomes: urine excretion after oral DDAVP
Conditions: oral by gavage, DDAVP 10 µg/kg body weight
Experimental: Liposomes composed of STEL-PC and cholesterol in a ratio of 1 : 2.5 with DDVAP encapsulated as active agent were studied in the Brattleboro model.
Treatment with exogenous vasopression restores normal urinary function and exerts a temporal antidiuretic effect.
Brattleboro rats were hold singly in metabolic cages with free access to tap water. DDAVP was administered orally by gavage at a dose of 10 µg/kg body weight either as free compound or in various formulations. Urine excretion was measured over 24 h in 1 h intervals using a fraction collector.

## 1-desamino-8-D-arginine vasopressin [free DDAVP]
  inhibition of urine excretion (duration): approximately 2 hours
